# Measurements from US6448472B1, “Genetic and epigenetic manipulation of ABC transporters and ectophosphatases for the conference of hormone and herbicide resistance” (Board of Regents, The University of Texas System, priority 1999, dated 2002).
# Where two headings read alike, the source gives them in different places.
# What was measured:
# [1] = system: S. cerevisiae yeast cells; assay: Yeast growth in suspension with ATP and drug selection (turbidity); format: cell-based, Saccharomyces cerevisiae; details: 100 mM ATP, 48 hours
# Experimental: Cell lines: Cell lines were the same as those described above in Example 2 and 3. YMR4 MDR1 is the phosphatase mutant yeast strain overexpressing AtPGP-1; YMR4 pVT101 contains vector alone; INVSC MDR1 is the wild-type yeast strain overexpressing AtPGP-1; and INVSC pVT101 contains vector alone.
# Selection in drug: To create drug resistant yeast strains, all four cell lines were grown up in the presence of 500 ng/ml of cycloheximide, and transferred to other cycloheximide containing plates after a period of four to six days. This transfer of cell lines and subculturing continued such that the yeast cells grew in the presence of cycloheximide for a period of at least a month.
# Cells cultured in media alone: To create cell lines that had not been preselected for their ability to grow in drug, yeast strains were grown on plates containing YNB (Bio101, Vista, Calif.) without uracil (-URA) to maintain the presence of the vector (which supplies URA) without any drugs added.
# Growth of cells in suspension for ATP and drug selection experiments: Cells were transferred into 5 ml YNB-URA liquid media for turbidity measurements. All cell lines (both non-drug selected and drug-selected) were grown in media with the addition of either nothing, 500 ng/ml cycloheximide, 100 mM ATP, or 500 ng/ml cycloheximide and 100 mM ATP. Turbidity readings were taken after 48 hours.
# [2] = system: Arabidopsis thaliana plants; assay: Arabidopsis germination selection assay of transgenic plants (Example 2); format: in vivo; details: cycloheximide 250 ng/ml
# Excerpt: Expression of apyrase and AtPGP-1 in plants: The expression of apyrase in plants is as described above in Example 1. Similar methods were employed to express AtPGP-1 in Arabidopsis thaliana plants with the following modifications. The AtPGP-1 coding region was subcloned into a pBIN vector lacking the GUS gene as described in Sidler, et al., 1998, The Plant Cell 10:1623-1636. This plasmid was then transformed into A. tumefaciens as described above, which was used to infect root calli to produce transgenic plants expressing AtPGP-1.
# Plant growth: Arabidopsis thaliana seeds were sown in a solid germination media containing MS salt, 2% sucrose, 0.8% agar, and vitamins (Valvekens, D. et al., […], Proc. Natl. Acad. Sci. USA 85:5536-5540. For selection assays, cycloheximide was spread on the media to achieve a final concentration of 250 ng/ml. Plant growth was measured by germination percentage after 6-30 days.
# yeast mutant YMR4 = assay: Yeast growth in suspension, salvage pathway experiments (adenosine, phosphate); format: cell-based, Saccharomyces cerevisiae; details: 72 hours; for effect of addition to the media on resistance to cycloheximide: YMR4 cells, 3 mM adenosine, potassium phosphate; for effect of addition on growth in drug: cells overexpressing AtPGP-1 grown in cycloheximide
# Experimental: Growth of cell lines in suspension for salvage pathway experiments: All cell lines were grown in liquid media either containing drug (for the drug selected lines) or not containing drug (for the non-drug selected lines). When the cultures reached a turbidity of 1.00 as measured at a wavelength of 600 in a spectrophotometer (OD600=1.00), 10 μl of each culture was then removed and placed in either media with nothing added, 3 mM potassium phosphate; 3 mM adenosine; 9 mM potassium phosphate and 3 mM adenosine (for controls); potassium phosphate and cycloheximide; adenosine and cycloheximide; adenosine, cycloheximide, and potassium phosphate. Cell cultures were further grown for 72 hours, and their turbidity was determined by OD600 readings on a spectrophotometer.
# [3] = system: Arabidopsis thaliana plants; format: in vivo; details: after 10-20 days
# Experimental: Plant Growth: Arabidopsis seeds were sown in a solid germination media containing MS salts (Sigma Chemical, St. Louis, Mo.), 2% sucrose, 0.8% agar, and vitamins (Valvekens, D. et al., 1992, Proc. Natl. Acad. Sci. USA 85:5536-5540). For selection assays, one of the following, or a combination of both, Was added to media (cooled to less than 50° C. before adding) immediately prior to pouring into plates: cycloheximide at a final concentration of 500 ng/ml; α,β-methyleneadenosine 5′-diphosphate at a final concentration of 1 mM. Plant growth was measured by germination percentage after 10-20 days.
# All other materials and methods were discussed above in Example 2.
# [4] = system: Saccharomyces cerevisiae INVSC1 and YMR4; assay: Yeast growth selection assay on plates and in liquid media (turbidity OD600); format: cell-based; details: cycloheximide 500 ng/ml
# Excerpt: Expression of AtPGP-1 in yeast: The AtPGP-1 cDNA (Arabidopsis thaliana MDR gene, accession #X61370) was subcloned into pVT101 downstream of the ADH promoter to create the AtPGP-1/pVT101 construct. AtPGP-1/pVT101 and pVT101 were transformed into Saccharomyces cerevisiae INVSC1 (genotype: MATα, his3-Δ1, leu2, trp1-289, ura3-52) and YMR4 (genotype: MATαhis3-11,15, leu2-3, 112ura3Δ5, can Res pho5, 3::ura3Δ1) by a PEG lithium acetate procedure (Eble, R., 1992, Biotechniques 13:18-20) and selected on uracil dropout medium.
# Yeast Growth: Yeast were grown at 30° C. under conditions of constant selection for uracil auxotrophy. YNB (Bio101, Vista, Calif.) supplemented with CSM (uracil dropout) and 2% glucose was used to grow strains having pVT101 constructs. Cycloheximide (Sigma Chemical, St. Louis, Mo.) was added to liquid media or spread on solid media to achieve a final concentration of 500 ng/ml. Nigericin (Sigma Chemical, St. Louis, Mo.) was added to liquid media or spread on solid media to achieve a final concentration of 25 μg/ml. Yeast strains used in cycloheximide selection assays were always propagated in the presence of the cycloheximide on plates and then streaked onto new plates containing drug or no drug, such that induced resistance existed in each strain at the time of the start of the assay. For selection assays on plates, single colonies were streaked; for selection in liquid media 0.01 ml of saturated culture was added to fresh media containing the drug. The plates shown in figures were grown for 3-5 days before photographs were taken. Yeast selection assays in liquid media were quantitated by turbidity as measured by absorbance at OD600.
# [5] = YMR4 ecto-phosphatase deficient mutant (vector alone), nigericin 25 μg/ml
# [6] = YMR4 expressing AtPGP-1, nigericin 25 μg/ml
structure (smiles),measurement,setting,value
Nc1ncnc2c1ncn2[C@@H]1O[C@H](COP(=O)(O)OP(=O)(O)OP(=O)(O)O)[C@@H](O)[C@H]1O [ATP],growth in high levels of ATP,[1]; cells not previously selected in drug,able to grow
same,growth in high levels of ATP,"[1]; cells previously selected in cycloheximide, not overexpressing AtPGP-1",not able to grow
CC(C)=CCNc1ncnc2nc[nH]c12 [N6-(2-isopentenyl) adenine],resistance of plants to the drug (germination),[2]; plants over-expressing AtPGP-1,confer resistance
same,resistance of plants to the drug (germination),[2]; plants over-expressing apyrase,The same result was obtained
Nc1ncnc2c1ncn2[C@@H]1O[C@H](CO)[C@@H](O)[C@H]1O [adenosine],effect of addition to the media on resistance to cycloheximide,yeast mutant YMR4,did not enhance resistance
same,effect of addition on growth in drug,yeast mutant YMR4,slightly inhibitory
C[C@@H]1C[C@@H]([C@H](O)CC2CC(=O)NC(=O)C2)C(=O)[C@@H](C)C1 [cycloheximide],resistance of plants to the drug (germination),[2]; plants over-expressing AtPGP-1,confer resistance
same,resistance of plants to the drug (germination),[2]; plants over-expressing apyrase,conference of resistance
same,germination rate,[3]; AtPGP-1 overexpressing (MDR OE) plants,50%
same,germination rate,[3]; wild-type plants,2%
same,effect of AtPGP-1 on growth in the presence of drug,[4]; INVSC1 wild-type yeast with AtPGP-1,did not have any effect
same,growth in the presence of drug,[4]; INVSC1 wild-type yeast,did grow
same,growth in the presence of drug,[4]; [5],did not grow
same,growth in the presence of drug,[4]; [6],enabled the yeast mutant to grow
CO[C@@H]1C[C@@H](C[C@H]2CC[C@H](C)[C@H]([C@@H](C)C(=O)O)O2)O[C@]2(O[C@](C)([C@H]3CC[C@@](C)([C@@H]4O[C@@H]([C@H]5O[C@@](O)(CO)[C@H](C)C[C@@H]5C)C[C@@H]4C)O3)C[C@H]2C)[C@@H]1C [nigericin],growth in the presence of drug,[4]; [5],reduced growth
same,growth in the presence of drug,[4]; [6],The same result was obtained
"Nc1ncnc2c1ncn2[C@@H]1O[C@H](COP(=O)(O)CP(=O)(O)O)[C@@H](O)[C@H]1O [phosphatase inhibitor, α,β-methyleneadenosine 5′-diphosphate]",germination rate,"[3]; AtPGP-1 overexpressing (MDR OE) plants, cycloheximide 500 ng/ml, phosphatase inhibitor 1 mM",83%
same,germination rate,"[3]; wild-type plants, cycloheximide 500 ng/ml, phosphatase inhibitor 1 mM",90%
"O=P(O)(O)O [phosphate, potassium phosphate]",effect of addition to the media on resistance to cycloheximide,yeast mutant YMR4,did not enhance resistance
same,effect of addition on growth in drug,yeast mutant YMR4,slightly inhibitory
